Test results: PMC7055211 (Scientific Reports, 2020)
pEC50: −log10 of the molar value. “Also recorded” adds a separate entry of the source. Read-outs that look alike come from different tables or passages of the source.

Experiments:
[1] = WST-1 cellular metabolism measurement for the five prazoles (CC50); type: cell-based; details: human, 293 T cells, 50% metabolic activity of control, WST reagent, read-out: Cytotoxicity (CC50)
EBOV (Zaire) = test: microbe, parasite or virus in culture; type: cell-based, Ebola virus
HIV-1 = test: microbe, parasite or virus in culture; type: cell-based; details: for pEC50: Human immunodeficiency virus 1, HEK-293T
[2] = tested on: pseudotyped virus using the EBOV Env (G) protein; details: cited from earlier work
[3] = Prazole degradation rate: prodrug remaining in pH 5.8 buffer by 1D proton NMR; details: for prodrug remaining at 17 hours: 1D proton NMR
DENV 2 strain 16681 = type: cell-based, Dengue virus type 2
ZIKV PRVABC59 = type: cell-based, Zika virus
[4] = tested on: Mahoney strain of poliovirus; type: cell-based, Poliovirus Type I Mahoney; details: 293 T cells, up to 100 μM, plaque assay
MAYV TRVL 15537 = type: cell-based, Mayaro virus
EBV = type: cell-based, Epstein Barr virus; details: CLIX-FZ; for Virus Production (resistant or susceptible), EBV: BALF5
CLIX-FZ cells = test: WST-1 metabolic activity of CLIX-FZ cells; type: cell-based; details: 40 μM concentration range, WST-1, 24 hr
Protocol: Figure 4 EBV replication is tenatoprazole-sensitive. Latent EBV was reactivated in CLIX-FZ cells by addition of doxycycline in the presence of DMSO (black bars) or DMSO plus tenatoprazole (20 µM or 40 µM, grey bars); non-treated cells are shown as white bars. After 72 hr, cells and conditioned media were harvested. Panel A, extracellular EBV DNA measured in pellet fraction of conditioned media. Panel B, intracellular EBV DNA measured in lysed cells. EBV DNA was determined by quantitative-PCR (qPCR) for the EBV BALF5 gene. EBV DNA copy number from each preparation was normalized to the DMSO-treated control. Panel C, metabolic activity of cells in the presence of tenatoprazole. The cells were grown for 24 hr in media containing the indicated concentrations of doxycycline and tenatoprazole followed by assessment of metabolic activity assessed using the WST-1 assay. Panel D, fractionation of intracellular DNA. […] DNA was extracted from each fraction and the relative number of EBV genomes from each fraction was determined by qPCR using primers directed towards the EBV BALF5 gene. […]
Metabolic activity of the cells in the presence of the prazole drugs for 24 hr was assessed using the WST-1 assay (Roche Applied Science) following the manufacturer's protocol.

HIV-1 Gag-HA VLP = type: cell-based
Tsg101 UEV domain = molecular target: T1, Tsg101 UEV domain (Homo sapiens, UniProt Q99816); test: NMR chemical shift perturbations of Tsg101 UEV domain complexed with prazoles; type: binding; details: 15N-Tsg101 UEV, pH 5.8, 300 K
T1 construct: purified ^15N-labeled Tsg101 UEV domain protein complexed to various prazoles; made in house
T1 sequence (Q99816 2-145 limits assumed): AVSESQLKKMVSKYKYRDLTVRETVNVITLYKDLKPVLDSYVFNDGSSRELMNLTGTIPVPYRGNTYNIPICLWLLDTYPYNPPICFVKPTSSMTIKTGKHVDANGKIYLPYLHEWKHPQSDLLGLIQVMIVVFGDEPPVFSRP

[5] = tested on: HIV-1 P7L-Gag (disrupted PTAP motif); type: cell-based
in vitro [6] = details: human
in vitro [7] = details: human; remark: listed apart in the source
in vitro [8] = details: human; remark: listed apart in the source
[9] = read-out: Approximate Effective Concentration (EC50)
[10] = read-out: EC50, inhibition of HIV-1 production
[11] = doxycycline, 20 µM and 40 μM, 72 hr, qPCR

COc1ccc2nc([S@@+]([O-])Cc3ncc(C)c(OC)c3C)[nH]c2c1 [Esomeprazole, Esomeprazole magnesium hydrate]
CC50 at 24 h [1]: 75 µM | inhibitory effect on EBOV (EBOV (Zaire)): no significant inhibitory effect | Selectivity Index (CC50/EC50) (HIV-1): 1.0 | pEC50 (HIV-1; [9]): 4.12 | pEC50 (HIV-1; [10]): ~4.12 | pEC50 [2]: 4.30 | prodrug remaining at 17 hours ([3]; 2 mM prazole, 300 K): ~ 55%

Cc1c(OCC(F)(F)F)ccnc1C[S+]([O-])c1nc2ccccc2[nH]1 (stereo not shown) [Lansoprazole, lansoprazole]
CC50 at 24 h [1]: 50 µM | Selectivity Index (CC50/EC50) (HIV-1; HIV-1, Table 3): 2.0 | pEC50 (HIV-1; [9]): 4.60 | pEC50 (HIV-1; [10]): ~4.60 | prodrug remaining at 17 hours ([3]; 2 mM prazole, 300 K): 20%

COc1ccnc(C[S+]([O-])c2nc3ccc(OC(F)F)cc3[nH]2)c1OC (stereo not shown) [Pantoprazole, pantoprazole sodium hydrate]
CC50 at 24 h [1]: 40 µM | inhibition of HIV-1 production (in words) (HIV-1): negligible inhibitory activity | Selectivity Index (CC50/EC50) (HIV-1; HIV-1, Table 3): <0.5 | pEC50 (HIV-1; [9]): < 4.12 | prodrug remaining at 17 hours ([3]; 2 mM prazole, 300 K): 96%

COCCCOc1ccnc(C[S+]([O-])c2nc3ccccc3[nH]2)c1C (stereo not shown) [Rabeprazole, rabeprazole sodium]
CC50 at 24 h [1]: 150 µM | inhibition of HIV-1 production (in words) (HIV-1): strongest inhibitory effect | Selectivity Index (CC50/EC50) (HIV-1; HIV-1, Table 3): 10 | pEC50 (HIV-1; [9]): 4.82 | pEC50 (HIV-1; [10]): ~4.82 | time course of prodrug disappearance ([3]; 2 mM prazole, 300 K): completely disappearing in less than ten hours

COc1ccc2[nH]c([S+]([O-])Cc3ncc(C)c(OC)c3C)nc2n1 (stereo not shown) [Tenatoprazole, tenatoprazole]
CC50 at 24 h [1]: 125 µM | DENV replication, tenatoprazole susceptibility (DENV 2 strain 16681): no tenatoprazole susceptibility | Virus Production (resistant or susceptible), DENV (DENV 2 strain 16681; 293 T, infectivity, FFU): Resistant | reduction in ZIKV infectious virus output (ZIKV PRVABC59): < 2 fold | Virus Production (resistant or susceptible), ZIKV (ZIKV PRVABC59; 293 T, infectivity, PFU): Resistant | PV tenatoprazole susceptibility [4]: no tenatoprazole susceptibility | Virus Production (resistant or susceptible), MAYV (MAYV TRVL 15537): sensitive; also recorded: Susceptible (2.5) | reduction of MAYV titer (MAYV TRVL 15537): > 2 log10 | Selectivity index (CC50/EC50), MAYV (MAYV TRVL 15537; 293 T): Susceptible (2.5) | Selectivity index (CC50/EC50), EBOV (EBOV (Zaire)): Susceptible (1.6) | pEC50 (EBOV (Zaire); Zaire ebolavirus, HeLa, 24 h, read-out: EC50, inhibition of EBOV spread): 4.10 | Selectivity index (CC50/EC50), EBV (EBV): ~4 | intracellular EBV load (EBV; [11]): increased | number of released (extracellular) EBV particles (EBV; [11]): dose-dependent reduction | Virus Production (resistant or susceptible), EBV (EBV; qPCR): Susceptible | Virus Production (resistant or susceptible), EBV (EBV; qPCR, listed as tenatoprazole): sensitive | metabolic capacity of host CLIX-FZ cells (CLIX-FZ cells): some impairment of metabolic capacity | Virus Production (resistant or susceptible), HIV-1 (HIV-1): sensitive | Selectivity Index (CC50/EC50) (HIV-1; HIV-1, Table 3): 2.5 | pEC50 (HIV-1; [9]): 4.30 | pEC50 (HIV-1; [10]): ~4.30 | Gag accumulation in cell lysate (HIV-1 Gag-HA VLP): drug concentration-dependent decline in Gag accumulation | VLP production (HIV-1 Gag-HA VLP): dose-dependent inhibition of VLP production | VLP release efficiency (HIV-1 Gag-HA VLP): no change | chemical shift change of backbone amide of S41 (Tsg101 UEV domain): 0.29 ppm | Alix rescue of P7L-Gag release in presence of tenatoprazole ([5]; 293T, concentration range to which the WT is susceptible): 2–3 fold | Alix-mediated stimulation of p25 to p24 maturation ([5]; in the presence or absence of the drug): ~ 3 fold | CC50 (in vitro [6]): 129 µM | CC50 (in vitro [7]): 123 µM | viability at 80 µM (in vitro [8]): > 80% | prodrug remaining at 17 hours ([3]; 2 mM prazole, 300 K): ~ 5%

Cc1c(OCC(F)(F)F)ccnc1C[S@@+]([O-])c1nc2ccccc2[nH]1 [dexlansoprazole]
conversion rate, dexlansoprazole compared with lansoprazole ([3]; Supplemental Fig. 3A): no significant difference in rates
